Measurements: patent US6284758A, “Angiogenesis promoters and angiogenesis potentiators” (priority 1997, dated 2001)

How the values were obtained:
[1] = tested on: rat sponge model (angiogenesis); assay: Angiogenesis promotion by compound A in rat sponge model (embedded gelatin sponge; hemoglobin in sponge and photograph); format: in vivo
Procedure: Rats were anesthetized by intraperitoneal administration of sodium pentobarbital (50 mg/kg), and the dorsal median line was incised for about 1 cm and an air pocket was made subcutaneously at about 2.5 cm toward the tail side with a Kocher clamp. A hemostatic gelatin sponge (Spongel®, 10 mm×10 mm×7 mm; manufactured by Yamanouchi Pharmaceutical Co., Ltd.) impregnated with physiological saline was embedded therein. The opening was sutured and antisepticized to give a test animal model.
As a reagent, compound A (4-bromo-6-[3-(4-chlorophenyl)-propoxy]-5-(3-pyridylmethylamino)-3-(2H)-pyridazinone hydrochloride, 100 mg) produced by a conventional method was suspended in 0.5% methylcellulose solution (100 ml) in a mortar and used.
As a control, a vehicle (0.5% methylcellulose solution) was used. The vehicle was obtained by dissolving methylcellulose (5 g, manufactured by Kishida Chemical Industries, Ltd.) in distilled water (1000 ml).
The reagent (compound A) and the vehicle were orally administered repeatedly from the day of sponge embedding at a dose of 10 ml/kg once a day for 4 days or 7 days. The administration was performed 30 minutes before anesthetizing the animal on the very day of embedding, and the sponge was removed on the next day of the final administration.
After 4 days or 7 days from the embedding, an excess amount of pentobarbitalwas intravenously injected to the animals for euthanasia. The back was opened, and the tissue surrounding the embedded sponge was removed and the surface of the sponge was photographed. The sponge was taken out and placed in a 0.1M aqueous ammonia (2 ml), which was stood for 4 hr to extract hemoglobin in the sponge. The extract (100 μl) was taken, and hemoglobin was quantitated using an assay kit (hemoglobin B-TESTWAKO; manufactured by Wako Pure Chemical Industries, Ltd.) and used as the index of angiogenesis. The amount of hemoglobin in the sponge was calculated by the following formula.
Amount of hemoglobin in sponge (mg/sponge)=hemoglobin (mg) in extract (100
μl)×20 (total extract 2 ml)
The obtained data were expressed in mean±standard error. For the evaluation of the angiogenic effect, an unpaired t-test was performed using the animals administered with the drug for 4 days or 7 days and respective vehicle groups as control to examine significant difference. The significance was ascribed at less than 5% risk rate.

[2] = Acute toxicity, oral, rat; conditions: in vivo, oral administration
[3] = Acute toxicity, oral, dog; conditions: in vivo, oral administration
[4] = tested on: rat sponge model (angiogenic effect of b-FGF); assay: Potentiation of angiogenic effect of b-FGF by compound A in rat sponge model (b-FGF 1 μg/sponge); format: in vivo; conditions: for Hemoglobin in sponge at 4 days after embedding: mean±standard error, number of animals 10
Procedure: (§1) The test animal models were prepared in the same manner as in Experimental Example 1.
As a reagent, compound A (4-bromo-6-[3-(4-chlorophenyl)-propoxy]-5-(3-pyridylmethylamino)-3-(2H)-pyridazinone hydrochloride, 50 mg) produced by a conventional method was suspended in 0.5% methylcellulose solution (100 ml) in a mortar and used.
The vehicle (0.5% methylcellulose solution) was obtained by dissolving methylcellulose (5 g, manufactured by Kishida Chemical Industries, Ltd.) in distilled water (1000 ml).
A 0.1% bovine serum albumin (BSA)-physiological saline solution was prepared by dissolving BSA (0.1 g, Sigma) in physiological saline (100 Ml).
A b-FGF solution was prepared by dissolving recombinant b-FGF (20 μg, manufactured by BTI) in 0.1% BSA-physiological saline solution (2 ml).
A hemostatic gelatin sponge was the same as that used in Experimental Example 1.
The test group was divided into 3 groups. A sponge wetted with 100 μl of 0.1% BSA-physiological saline solution was embedded in group 1. A sponge (1 μg b-FGF/sponge) wetted with b-FGF solution (100 μl) was embedded in group 2 and group 3.
The vehicle was orally administered to group 1 and group 2, and the reagent (compound A) was orally administered to group 3 repeatedly from the day of sponge embedding at the dose of 10 ml/kg twice a day for 4 days.
In every test group, the administration began from the evening (single administration) of the very day of embedding. The time of administration of the drug was around 9 a.m. for the first administration and around 7 p.m. for the second administration. In consideration of the effect of the drug, the drug was not administered on the very day of sponge removal (7 times of administration in total).
After 4 days from the embedding, an excess amount of pentobarbital was intravenously injected to the animals for euthanasia. The back was opened, and the tissue surrounding the embedded sponge was removed and the surface of the sponge was photographed. The sponge was taken out and hemoglobin in the sponge was calculated in the same manner as in Experimental Example 1.
The obtained data were expressed in mean±standard error. For the evaluation of the angiogenic effect, a multiple comparison test by Tukey method was performed to examine significant difference. The significance was ascribed at less than 5% risk rate.

rat and dog = assay: Acute toxicity, oral, rat and dog (overall finding); format: in vivo; conditions: oral administration
[5] = tested on: rat sponge model (angiogenesis); assay: Relationship between dose and angiogenesis promotion by compound A in rat sponge model; format: in vivo; conditions: for Hemoglobin amount in sponge vs vehicle (in words): 7 times in total, Dunnett test
Procedure: as §1
As a reagent, compound A (4-bromo-6-[3-(4-chlorophenyl)-propoxy]-5-(3-pyridylmethylamino)-3-(2H)-pyridazinone hydrochloride, 35 mg) produced by a conventional method was suspended in 0.5% methylcellulose solution (70 ml) in a mortar and used as a 5 mg/kg administration reagent.
This suspension was diluted two-fold and 5-fold with a vehicle (0.5% methylcellulose solution) to give 2.5 mg/kg administration reagent and 1 mg/kg administration reagent (respective dose 10 ml/kg). The vehicle (0.5% methylcellulose solution) was used as a control. The vehicle was obtained by dissolving methylcellulose (5 g, manufactured by Kishida Chemical Industries, Ltd.) in distilled water (1000 ml).
Each reagent (compound A) and the vehicle were orally administered repeatedly (7 times in total) from the day of sponge embedding at a dose of 10 ml/kg twice a day for 4 days. The sponge was removed on the next day of the final administration, and hemoglobin in the sponge was calculated in the same manner as Experimental in Example 1.
Each group contained […] animals and the obtained data were expressed in mean±standard error. For the evaluation of the angiogenic effect, a Dunnett test was performed using the vehicle administration group as a control to examine significant difference. The significance was ascribed at less than 5% risk rate.

[6] = Hypotensive action in rat; format: in vivo; conditions: 5 mg/kg, based on vasodilating action
[7] = day 4 and day 7, also seen with vehicle

| Compound | Time course of amount of hemoglobin in sponge (in words) [1, 7] | Time course of neovascularized blood vessels on the sponge surface (in words) [1, 7] | Amount of hemoglobin in sponge vs vehicle (in words) ([1]; day 7 of the test) | Observation of photograph: neovascularized blood vessels on the sponge surface ([1]; day 7 of the test, vs vehicle administration group) | Hemoglobin in sponge, 4 days after embedding ([1]; oral, 10 ml/kg (100 mg/100 ml suspension) once a day for 4 days, mean±standard error, number of animals 10, vehicle 6.216 ± 0.903) [mg/sponge] | Hemoglobin in sponge, 7 days after embedding ([1]; oral, 10 ml/kg (100 mg/100 ml suspension) once a day for 7 days, mean±standard error, number of animals 9, vehicle 9.585 ± 0.774, **p < 0.01 relative to vehicle, unpaired t-test) [mg/sponge] | LD50 [2] [mg/kg] | LD50 [3] [mg/kg] | Observation of photograph: neovascularized blood vessels ([4]; day 4, group 3 (b-FGF and compound A, 5 mg/kg, co-administration) vs group 2 (b-FGF alone)) | Hemoglobin content vs group 1 and group 2 (in words) ([4]; group 3 (b-FGF and compound A, 5 mg/kg, co-administration), day 4) | Hemoglobin in sponge at 4 days after embedding ([4]; group 3: compound A 5 mg/kg orally twice a day (7 times in total) plus b-FGF (1 μg/sponge) in sponge, p < 0.01 relative to group 1 and group 2 (Tukey method)) [mg/sponge] | Toxicity (in words) (rat and dog) | Hemoglobin amount in sponge vs vehicle (in words) ([5]; 2.5 mg/kg orally twice a day) | Hemoglobin amount in sponge vs vehicle (in words) ([5]; 5 mg/kg orally twice a day) | Effect at 5 mg/kg on hemoglobin amount, tendency (in words) ([5]; 5 mg/kg, postulated due to decrease in blood flow from hypotensive action) | Angiogenesis promotion effect at a dose substantially free from hypotensive action (in words) ([5]; rat) | Hypotensive action [6] | Observation of photograph: neovascularized blood vessels ([4]; day 4, group 2 (b-FGF single administration) vs group 1 (BSA-physiological saline)) | Hemoglobin in sponge at 4 days after embedding ([4]; group 2: b-FGF (1 μg/sponge) in sponge, vehicle orally, group 1 (BSA-saline) 5.503 ± 0.562) [mg/sponge] |
| --- | --- | --- | --- | --- | --- | --- | --- | --- | --- | --- | --- | --- | --- | --- | --- | --- | --- | --- | --- |
| Cl.O=c1[nH]nc(OCCCc2ccc(Cl)cc2)c(NCc2cccnc2)c1Br [compound A, 4-bromo-6-[3-(4-chlorophenyl)-propoxy]-5-(3-pyridylmethylamino)-3-(2H)-pyridazinone hydrochloride] | showed an increase in the amount of hemoglobin in sponge at day 4 and day 7 of the test, in proportion to the number of days lapsed | showed an increase of neovascularized blood vessels on the sponge surface at day 4 and day 7 of the test in proportion to the number of days lapsed | showed a significant increase as compared to the vehicle administration group | showed more neovascularized blood vessels than in the vehicle administration group | 6.255 ± 0.807 | 16.351 ± 1.836 | ≥ 2000 | ≥ 2000 | showed still more neovascularized blood vessels than in group 2 | showed a significant increase in hemoglobin content as compared to group 1 (0.1% BSA-physiological saline solution group) and group 2 (b-FGF single administration group) | 14.995 ± 2.307 | extremely low toxic | showed a significant increase in hemoglobin amount | showed a significant increase in hemoglobin amount | the effect tended to weaken somewhat, though a significant difference was found | superior angiogenesis promotion effect at a dose substantially free from hypotensive action | causes hypotensive action in rat |  |  |
| b-FGF: recombinant b-FGF (20 μg, manufactured by BTI); basic fibroblast growth factor |  |  |  |  |  |  |  |  |  |  |  |  |  |  |  |  |  | visually showed more neovascularized blood vessels than in group 1 | 7.285 |
